Measurements from ChEMBL document CHEMBL1124960, “Histamine H3 ligands: just pharmacological tools or potential therapeutic agents?” (J Med Chem, 1990).

Legend:
[1] = target: Histamine H3 receptor (Rattus norvegicus) (UniProt Q9QYN8); test: Evaluated for antagonist activity against histamine H3 receptor and represented as KB.; type: functional
Target sequence in this assay (Q9QYN8 whole entry): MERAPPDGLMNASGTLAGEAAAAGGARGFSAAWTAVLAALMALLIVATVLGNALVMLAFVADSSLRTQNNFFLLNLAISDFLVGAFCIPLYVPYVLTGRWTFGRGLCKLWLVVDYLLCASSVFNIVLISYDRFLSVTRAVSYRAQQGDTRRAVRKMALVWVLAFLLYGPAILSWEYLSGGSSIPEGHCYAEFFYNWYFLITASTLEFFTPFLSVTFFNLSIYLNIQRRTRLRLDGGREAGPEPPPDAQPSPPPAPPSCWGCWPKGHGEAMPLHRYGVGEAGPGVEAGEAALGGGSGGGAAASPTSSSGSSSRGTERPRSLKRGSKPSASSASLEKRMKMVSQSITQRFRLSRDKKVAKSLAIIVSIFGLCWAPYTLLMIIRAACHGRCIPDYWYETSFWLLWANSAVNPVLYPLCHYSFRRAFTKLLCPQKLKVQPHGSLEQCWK

[2] = species: Rattus norvegicus; test: Evaluated for [3H]-HA release at a frequency 10 Hz for 2 min at a concentration 10 E -5M; type: functional
[3] = species: Rattus norvegicus; test: Evaluated for [3H]HA release at a frequency 20 Hz for 2 min at a concentration 10 E -5M; type: functional
[4] = species: Rattus norvegicus; test: Evaluated for [3H]HA release at a frequency 10 Hz for 2 min at a concentration 10 E -6M; type: functional
[5] = species: Rattus norvegicus; test: Evaluated for [3H]-HA release at a frequency 33.3 Hz for 2 min at a concentration 10 E -6M.; type: functional
[6] = target: Histamine H2 receptor (Cavia porcellus) (UniProt P47747); test: Evaluated for activity against histamine H2 receptor in guinea pig gastric secretion and represented as alpha; type: tissue-based; conditions: Stomach
Histamine H2 receptor (Cavia porcellus), sequence (P47747 whole entry): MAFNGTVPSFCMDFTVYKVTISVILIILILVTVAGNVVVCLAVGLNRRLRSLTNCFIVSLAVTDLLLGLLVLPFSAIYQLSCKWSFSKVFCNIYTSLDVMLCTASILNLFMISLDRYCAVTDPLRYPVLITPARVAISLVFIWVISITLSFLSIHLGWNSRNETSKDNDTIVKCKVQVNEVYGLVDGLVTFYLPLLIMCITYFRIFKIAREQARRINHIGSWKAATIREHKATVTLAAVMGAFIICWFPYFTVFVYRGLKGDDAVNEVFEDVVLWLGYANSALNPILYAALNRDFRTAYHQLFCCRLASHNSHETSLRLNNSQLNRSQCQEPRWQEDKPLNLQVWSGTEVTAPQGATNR

[7] = species: Rattus norvegicus; test: Evaluated for [3H]HA release at a frequency 20 Hz for 2 min at a concentration 10 E -7M; type: functional
[8] = target: Histamine H2 receptor (Cavia porcellus) (UniProt P47747); test: Evaluated for activity against histamine H2 receptor in guinea pig gastric secretion and represented as intrinsic activity; conditions: Stomach
[9] = species: Rattus norvegicus; test: Evaluated for [3H]HA release at a frequency 20 Hz for 2 min at a concentration 10 E -6M; type: functional
[10] = species: Rattus norvegicus; test: Evaluated for [3H]HA release at a frequency 10 Hz for 2 min at a concentration 10 E -7M; type: functional
[11] = target: Histamine H1 receptor (Cavia porcellus) (UniProt P31389); test: Evaluated for their activity at histamine H1 receptor in guinea pig ileum.; type: tissue-based
Histamine H1 receptor (Cavia porcellus), sequence (P31389 whole entry): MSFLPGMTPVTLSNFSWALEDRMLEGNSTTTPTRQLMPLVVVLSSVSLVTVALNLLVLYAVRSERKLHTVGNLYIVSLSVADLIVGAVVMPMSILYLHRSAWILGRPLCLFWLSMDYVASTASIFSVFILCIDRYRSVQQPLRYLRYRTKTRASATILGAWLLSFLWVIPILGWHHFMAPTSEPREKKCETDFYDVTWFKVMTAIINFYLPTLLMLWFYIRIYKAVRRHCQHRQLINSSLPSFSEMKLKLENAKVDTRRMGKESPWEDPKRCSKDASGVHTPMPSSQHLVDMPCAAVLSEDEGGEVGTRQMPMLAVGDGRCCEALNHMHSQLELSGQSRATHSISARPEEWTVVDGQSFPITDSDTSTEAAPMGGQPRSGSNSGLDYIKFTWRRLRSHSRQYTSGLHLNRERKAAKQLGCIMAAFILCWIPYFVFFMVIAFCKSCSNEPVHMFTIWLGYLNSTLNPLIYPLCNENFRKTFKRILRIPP

[12] = species: Rattus norvegicus; test: Evaluated for [3H]HA release at a frequency 33.3 Hz for 2 min at a concentration 10 E -5M.; type: functional
[13] = species: Rattus norvegicus; test: Evaluated for [3H]HA release at a frequency 2 Hz for 2.5 min at a concentration 10 E -6M; type: functional
[14] = target: Histamine H1 receptor (Cavia porcellus) (UniProt P31389); test: Evaluated for activity at Histamine H1 receptor in guinea pig ileum; type: tissue-based
[15] = target: Histamine H2 receptor (Cavia porcellus) (UniProt P47747); test: Evaluated for activity at Histamine H2 receptor in guinea pig ileum; type: tissue-based
[16] = species: Rattus norvegicus; test: Evaluated for inhibition of [3H]histamine release from preloaded slices and is represented as pD2.; type: functional
[17] = species: Rattus norvegicus; test: Relative inhibition of [3H]histamine release from pre-loaded slices of rat cerebral cortex; type: functional
[18] = target: T1, Histamine H3 receptor (Rattus norvegicus, UniProt Q9QYN8); test: Evaluated for antagonist activity against Histamine H3 receptor and represented as KB.; type: functional
T1 sequence (Q9QYN8 whole entry): as the sequence (Q9QYN8 whole entry) above

[19] = target: Histamine H3 receptor (Rattus norvegicus) (UniProt Q9QYN8); test: Evaluated for activity against H3 receptor and represented as %recovery histamine release at a concentration 5 x 10 E -6M.
Target sequence in this assay (Q9QYN8 whole entry, looked up): as the sequence (Q9QYN8 whole entry) above

[20] = target: Histamine H2 receptor (Cavia porcellus) (UniProt P47747); test: Evaluated for activity against Histamine H2 receptor in guinea pig atrium and represented as alpha; type: tissue-based; conditions: Cardiac atrium
[21] = target: Histamine H2 receptor (Cavia porcellus, UniProt P47747); test: Evaluated for activity against Histamine H2 receptor in guinea pig atrium and represented pA2; type: tissue-based, Cardiac atrium; conditions: read-out: pA2 (converted)
Histamine H2 receptor, sequence (P47747 whole entry): as the sequence (P47747 whole entry) above

[22] = target: Histamine H2 receptor (Cavia porcellus) (UniProt P47747); test: Evaluated for antagonist activity against histamine H2 receptor and represented as KB.; type: functional
[23] = target: Histamine H1 receptor (Cavia porcellus) (UniProt P31389); conditions: Ileum
[24] = target: Histamine H2 receptor (Cavia porcellus) (UniProt P47747); conditions: Cardiac atrium
[25] = target: T1, Histamine H3 receptor; test: Evaluated for antagonistic activity at histamine H3 receptor in rat cerebral cortex and is represented as Ki; type: functional, tissue-based
[26] = target: Histamine H2 receptor (Cavia porcellus) (UniProt P47747); test: Evaluated for activity against histamine H2 receptor in guinea pig atrium and represented as intrinsic activity; conditions: Cardiac atrium
[27] = target: Histamine H3 receptor (Rattus norvegicus) (UniProt Q9QYN8); test: Evaluated for activity against H3 receptor and represented as %recovery histamine release at a concentration 5 x 10 E -6M
Target sequence in this assay (Q9QYN8 whole entry, looked up): as the sequence (Q9QYN8 whole entry) above

[28] = target: Histamine H2 receptor (Cavia porcellus) (UniProt P47747); test: Evaluated for activity against histamine H2 receptor in guinea pig atrium and represented as alpha; type: tissue-based; conditions: Cardiac atrium
[29] = target: Histamine H2 receptor (Cavia porcellus) (UniProt P47747); test: Evaluated for activity against histamine H2 receptor in guinea pig gastric secretion and represented as pD2; type: tissue-based; conditions: Stomach
[30] = target: T1, Histamine H3 receptor; test: Evaluated for antagonist activity against histamine H3 receptor and is represented as -log Ki.; type: functional
[31] = target: Histamine H1 receptor (Cavia porcellus) (UniProt P31389); test: Evaluated for agonistic activity at histamine H1 receptor of guinea pig ileum and is represented as intrinsic activity; type: functional, tissue-based
[32] = target: Histamine H2 receptor (Cavia porcellus) (UniProt P47747); test: Evaluated for agonistic activity at histamine H2 receptor of guinea pig atrium and is represented as potency.; type: functional, tissue-based; conditions: Cardiac atrium
[33] = target: Histamine H1 receptor (Cavia porcellus) (UniProt P31389); test: Evaluated for agonistic activity at histamine H1 receptor of guinea pig ileum and is represented as potency.; type: functional, tissue-based
[34] = target: T1, Histamine H3 receptor; test: Evaluated for antagonistic activity at histamine H3 receptor in rat cerebral cortex and is represented as Ki.; type: functional, tissue-based
[35] = target: Histamine H2 receptor (Cavia porcellus) (UniProt P47747); test: Evaluated for agonistic activity at histamine H2 receptor of guinea pig atrium and is represented as intrinsic activity; type: functional, tissue-based; conditions: Cardiac atrium
[36] = target: Histamine H1 receptor (Cavia porcellus) (UniProt P31389); test: Evaluated for agonistic activity at histamine H1 receptor of guinea pig ileum and is represented as potency; type: functional, tissue-based
[37] = target: Histamine H2 receptor (Cavia porcellus) (UniProt P47747); test: Evaluated for agonistic (intrinsic) activity at histamine H2 receptor of guinea pig atrium and is represented as intrinsic activity; type: functional, tissue-based; conditions: Cardiac atrium

`CN/C(=N\CCSCc1nc[nH]c1C)NC#N` was tested, and the KB [1] was 33 µM.

`Cc1[nH]cnc1CSCCNC(=N)NCCCc1c[nH]cn1` [IMPROMIDINE] showed an HA release [2] of 25.5, an HA release [3] of 35.1 and an HA release [4] of 25.9. It also gave an HA release [5] of 39.5, an H2 activity [6] of 1 and an HA release [7] of 31.2. The intrinsic activity [8] was 1, the HA release [9] was 35.5 and the HA release [10] was 25.3. It also gave an Activity [11] of less than 0.001, an HA release [12] of 38.4 and an HA release [13] of 14.3.

Compound `CNCCc1cnc[nH]1` has an Activity [14] of 72, an Activity [15] of 74 and a pD2 [16] of 8.7. The Ratio_EC50 [17] was 270.

`C[C@H](N)Cc1c[nH]cn1` gave an Activity [14] of 0.49, an Activity [15] of 1.74 and a Ratio_EC50 [17] of 13.

Compound `O=C(CCCCc1ccccc1)NCCc1cnc[nH]1` has a Ki [18] of 200 nM.

`CSCC/N=C(\NC#N)NCCCc1c[nH]cn1` [VUF-8406] showed a Release [19] of 100%, an Activity [20] of 0 and a Kb [21] of 15.8 nM.

With `C/N=C(/NC#N)NCCSCc1csc(NC(=N)N)n1` the KB [22] was 15 nM and the KB [1] was greater than 12 µM.

Work on `Cc1ncc(CCN)[nH]1` [2-METHYLHISTAMINE] yielded an Activity [14] of 16.5, an Activity [15] of 4.4 and a Ratio_EC50 [17] of less than 0.008.

`NCCc1c[nH]cn1` [HISTAMINE] gave a Potency [23] of 100, an Activity [14] of 100 and a pD2 [24] of 5.95. The Activity [15] was 100 and the Ratio_EC50 [17] was 100.

Work on `Cc1nc[nH]c1CSCCNC(N)=N[C@@H](C)Cc1cnc[nH]1` yielded a Ki [25] of 40 nM.

`CC(C)Cc1ccc(CSCC/N=C(\N)NCCCc2c[nH]cn2)o1` showed an intrinsic activity [26] of 0.9, a Release [27] of 100% and a pD2 [6] of 8.5. For the same compound, the Activity [28] was 0.9 and the pD2 [29] was 7.8.

For `O=C(CCC(c1ccccc1)c1ccccc1)NCCc1c[nH]cn1`, the Ki [30] was 1000 nM.

For `Cc1nc[nH]c1CSCCNC(=N)N[C@H](C)Cc1c[nH]cn1` [SOPROMIDINE], the Activity [31] was 0.2, the pD2 [32] was 6.92 and the Potency [33] was 1.7. For the same compound, the Ki [34] was 60 nM and the Activity [35] was 1.

Compound `O=C(CCCC1CCCCC1)NCCc1cnc[nH]1` has a Ki [30] of 50.1 nM.

Work on `Cn1cnc(CCN)c1` [N-METHYLHISTAMINE] yielded an Activity [14] of less than 0.01, an Activity [15] of less than 0.1 and a Ratio_EC50 [17] of less than 4.

Work on `CN(C)CCCSC(=N)N` yielded an Activity [14] of less than 0.0001, an Activity [15] of 71 and a Ratio_EC50 [17] of less than 0.03.

For `Cc1nc[nH]c1CSCCN/C(N)=N/[C@@H](C)Cc1c[nH]cn1`, the Potency [36] was 0, the Activity [31] was 0 and the Activity [37] was 0.
